One may read the IC50 as the concentration at which inhibition is half-maximal.

The record followed here is article PMC12498190, “A Photocaged N‐Phosphonopiperidinone as a Selective Photo‐Cleavable DPP8/9 Inhibitor” (Chembiochem, 2025).

The target of one data set is T1, human DPP8 (Homo sapiens, UniProt Q6V1X1).
T1 construct: purchased Proteros Biostructures GmbH, Germany
As to the kind of experiment: DPP8 enzyme inhibition assay, AMC release from GP-AMC. It counts as biochemical. To be noted: for IC50: 45 min pre-incubation, read-out: Apparent IC50. From the text: We then continued to investigate the biochemical properties of the photocaged compound 5 versus the photoreleased product resembling inhibitor 1. To this end, we performed biochemical enzyme inhibition assays with DPP8 and DPP9 before and after irradiation of 5. Resulting DPP8/9 inhibition was quantified by following the DPP8‐ or DPP9‐mediated proteolysis of the fluorophore 7‐amino‐4‐methylcoumarin (AMC) from the model substrate Gly‐Pro‐AMC (Figure 1C,D and Table 1 ). To induce photocleavage of 5, reaction mixtures were irradiated for 5 min with the same green LED lamp as before, followed by a pre‐incubation of 45 min with the photoreleased inhibitor prior to substrate addition.
Enzyme activity of human DPP4, DPP8, and DPP9 (Proteros Biostructures GmbH, Germany) was determined by measuring the initial velocity of AMC release from the fluorogenic substrate GP‐AMC (Sigma Aldrich, USA) using a Tecan Spark 10 M multimode microplate reader (Tecan Group Ltd., Switzerland) in activity buffer (20 mM HEPES/KOH pH 7.3, 110 mM potassium acetate, 2 mM magnesium acetate, 0.5 mM EGTA, 0.02% Tween 20, supplemented with 1 mM DTT) and a final volume of 20 μL for maximal 30 min at 30 °C. Prior to the activity measurement, 10 nM of the corresponding enzyme was incubated for 45 min at 30 °C and gentle shaking with the indicated compounds at concentrations ranging from 0 to 100 μM, followed by irradiation with a green LED lamp (λ = 520−530 nm; Eurolite, Germany) for 5 min. The corresponding compounds were dissolved in DMSO and diluted in activity buffer (final DMSO concentration: 1%). To the inhibitor–enzyme mixture, GP‐AMC was then added to a final concentration of 250 μM, and the activity measurement was started. The resulting enzyme activity was calculated from the slope (fluorescence release over time) and plotted against the concentrations of the inhibitor. Apparent IC50 values were calculated using Graph‐Pad Prism v10.4.1 using the equation: [Inhibitor] versus response‐Variable slope (four parameters). All measurements were performed in triplicate, and error bars represent standard errors of the fit.

Data set [1] is classed as physicochemical. To be noted: 50 µM in 10% acetonitrile/water, green LED 520-530 nm, 30 W. The procedure:
With 5 in our hands, we then started our probe characterization by determining the velocity of the photorelease reaction, i.e., the light‐triggered cleavage of the photocage, thereby delivering again the “active” inhibitor 1. To this end, a 50 µM solution of 5 in 10% acetonitrile in MS‐grade water was irradiated with a green LED lamp (λ = 520‐530 nm, 30 W) for the indicated time periods, and the release of the active inhibitor 1 was quantified via liquid chromatography‐mass spectrometry (LC–MS) analysis (Figure 1A). […] After 3 min, cleavage was quantitative (>99%). Importantly, the only products observed were the desired ‘free’ inhibitor 1 and the cleaved photogroup, indicating a clean activation to 1.
Figure 1 DPP inhibition by photo‐cleavable inhibitors. A) LC‐MS analysis of the photocleavage reaction of 5 after irradiation with green light. 50 µM of compound 5 was irradiated with a green LED lamp (λ = 520‐530 nm, 30 W) for up to 5 min, and the resulting reaction mixture was analyzed via LC‐MS. […] B) Resulting quantification of the photolysis of 5 based on peak areas depicted in A) (n = 3 technical replicates). […] Enzyme activity was determined by measuring the release of AMC from the substrate GP‐AMC. […]
Compound 5 was dissolved in DMSO. In order to quantify the effect of irradiation time on photocleavage of the BODIPY moiety, 50 µL aliquots of a 50 µM solution of 5 in 10% acetonitrile (ACN; VWR Chemicals, USA) in MS‐grade water (VWR Chemicals, USA) were irradiated for 0–5 min with a green LED lamp (λ = 520–530 nm, 30 W; Eurolite, Germany) at room temperature (RT) and gentle shaking (final DMSO concentration: 0.5%).
Quantification of inhibitor release was then determined via LC‐MS on an LTQ XL linear ion trap mass spectrometer (ITMS; Thermo Fisher Scientific, USA) coupled to a DIONEX UltiMate 3000 system (Thermo Fisher Scientific, USA), operated using Xcalibur software 4.4.16.14. […] Quantification was done using Freestyle v1.6. based on the UV spectra (λ = 254 nm) using the Avalon peak detection algorithm. […]

The structures appear in SMILES notation. Where two headings read alike, the source gives them in different places. Bounds are passed on as bounds.

T1 sequence (Q6V1X1 whole entry): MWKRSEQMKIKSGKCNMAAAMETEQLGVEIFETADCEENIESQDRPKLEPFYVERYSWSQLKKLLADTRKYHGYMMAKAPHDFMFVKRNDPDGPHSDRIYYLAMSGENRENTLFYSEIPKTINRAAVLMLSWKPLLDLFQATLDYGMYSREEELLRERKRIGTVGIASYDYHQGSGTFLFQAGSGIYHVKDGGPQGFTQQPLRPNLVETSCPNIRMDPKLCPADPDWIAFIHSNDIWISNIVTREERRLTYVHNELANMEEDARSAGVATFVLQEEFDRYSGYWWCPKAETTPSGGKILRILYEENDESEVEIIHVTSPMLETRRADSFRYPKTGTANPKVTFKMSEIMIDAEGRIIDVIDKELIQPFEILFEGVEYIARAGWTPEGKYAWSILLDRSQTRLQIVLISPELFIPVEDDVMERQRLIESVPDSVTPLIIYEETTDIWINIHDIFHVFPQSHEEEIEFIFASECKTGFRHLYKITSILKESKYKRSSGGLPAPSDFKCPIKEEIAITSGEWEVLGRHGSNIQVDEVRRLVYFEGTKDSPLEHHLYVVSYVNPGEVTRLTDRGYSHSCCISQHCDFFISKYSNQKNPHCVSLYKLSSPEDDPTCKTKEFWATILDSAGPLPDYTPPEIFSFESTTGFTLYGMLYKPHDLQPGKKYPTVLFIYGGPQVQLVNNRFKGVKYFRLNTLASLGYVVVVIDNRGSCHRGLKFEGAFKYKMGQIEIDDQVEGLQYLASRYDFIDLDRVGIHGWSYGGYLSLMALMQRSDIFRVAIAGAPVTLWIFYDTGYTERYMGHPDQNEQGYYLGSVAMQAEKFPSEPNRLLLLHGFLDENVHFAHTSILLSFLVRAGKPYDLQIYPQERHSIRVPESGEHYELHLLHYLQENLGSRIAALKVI

With `CCCCCc1ccc(SCCP(=O)(OCC)N2CCC[C@H](NC(=O)OCC3=C4C(C)=CC(C)=[N+]4[B-](C)(C)n4c(C)cc(C)c43)C2=O)cc1` (stereo partly drawn) [Compound 5], the “Dark/light ratio of apparent IC50” value on human DPP8 worked out at 30. Moreover, the “Increase in potency after green light-mediated photorelease” value on human DPP8 (apparent IC50 dark vs light) is “about 30 fold”. Moreover, the IC50 was found to be 1100 nM on human DPP8 (dark (without green light irradiation)) and 37 ± 3 nM on human DPP8 (light (5 min green LED, 520-530 nm)). The Photocage cleaved off in data set [1] (after 2 min) is listed as 95%; in data set [1] (after 3 min) it was greater than 99%.
